# Assays:
# [1] = Glucose tolerance test in PDX UF mice; format: in vivo, NOD/SCID mice; details: 6 weeks after treatment, vs control
# Description: (§1) After xenograft mice undergo intraperitoneal injection of doxercalciferol (300 ng/kg, 3 times per week) or saline for 6 weeks. Body weight is monitored weekly during doxercalciferol treatment. Six weeks after doxercalciferol treatment insulin resistance is assessed using GTT and then mice are anesthetized and blood is collected to measure liver enzyme and AMH levels, ovary tissue is removed for histological analysis, total RNA is extracted for sequencing, and tumor size is measured with a digital caliper.
# Glucose tolerance testing is performed on PDX UF mice 6 weeks after doxercalciferol treatment. Mice are tested either without fasting or after fasting for 16 h (5 p.m. to 9 a.m.), with free access to drinking water, after which they receive an intra-peritoneal (i.p.) injection of D-glucose (2.0 g/kg body weight). Blood glucose level is measured at 0, 15, 30, 60, 90, and 120 min following glucose injection using a Bayer glucose monitor (Roche Diagnostics Corp, IN, USA).
# [2] = system: SW872 cells; assay: Adipogenesis gene expression in SW872 cells (qRT-PCR array); format: cell-based, human; details: 10 nM, 24 hours
# Description: SW872 cells are subcultured in T75 flasks for 24 hours. Cells are then treated for 24 hours with serum free basal media as a control or doxercalciferol at 1 nM, 10 nM, or 100 nM diluted in basal media (serum-free). After the incubation period, cells are imaged and analyzed for morphology and cell count. Cells are then collected for analysis of adipogenesis-related gene expression and cell culture media are collected for analysis of obesity related cytokines. RNA is extracted from SW872 cells treated with doxercalciferol. RNA extraction is done using TRIzol (Invitrogen, USA) according to the manufacturer's instructions. The concentration and purity of the extracted RNA is checked using a NanoDrop spectrometer (Thermo Scientific, MA, USA). Quantitative real-time PCR (qPCR) of adipogenesis related genes in SW872 cells is performed using a RT^2 Profiler™ PCR Array Human Apidogenesis according to the manufacturer's instructions (Qiagen, Sciences Inc., MD, USA).
# [3] = Serum measurements in PDX UF mice (liver enzymes, calcium, AMH); format: in vivo, NOD/SCID mice
# Description: as §1
# Blood is collected from all groups by cardiac exsanguination under isoflurane anesthesia: serum is separated and stored at −80° C. Serum levels are measured for AMH, ALT, and total bilirubin.
# [4] = system: SW872 cells; assay: Obesity related cytokine antibody array of SW872 secretomes; format: cell-based, human; details: SW872 secretome, 10 nM, 24 hours
# Description: SW872 cells are subcultured in T75 flasks for 24 hours. Cells are then treated for 24 hours with serum free basal media as a control or doxercalciferol at 1 nM, 10 nM, or 100 nM diluted in basal media (serum-free). After the incubation period, cells are imaged and analyzed for morphology and cell count. Cells are then collected for analysis of adipogenesis-related gene expression and cell culture media are collected for analysis of obesity related cytokines. Cell culture media are collected from SW872 cells after 24 hours of 10 nM doxercalciferol treatment. The media is analyzed for obesity related cytokines using a membrane-based antibody array (Ray Biotech, GA, USA) per the manufacturer's protocol, and then quantified using a multimode microplate reader system, Varioskan LUX Multimode Microplate Reader (Thermo Fisher).
smiles,measurement,setting,value
C=C1/C(=C\C=C2/CCC[C@]3(C)[C@@H]([C@H](C)/C=C/[C@H](C)C(C)C)CC[C@@H]23)C[C@@H](O)C[C@@H]1O [doxercalciferol],fasting glucose levels,[1]; fasting 16 h,tends to lower
same,glucose levels,[1]; without fasting,tends to lower
same,CEBP relative gene expression,[2],significantly upregulated
same,CEBPD relative gene expression,[2],significantly upregulated
same,PRDM16 relative gene expression,[2],significantly downregulated
same,RXRA relative gene expression,[2],significantly upregulated
same,SREBF1 relative gene expression,[2],significantly downregulated
same,WNT1 relative gene expression,[2],significantly downregulated
same,WNT10B relative gene expression,[2],significantly downregulated
same,expression of most adipogenesis genes,[2]; not significant for most genes,downregulated
same,calcium levels vs reference range for NOD CB17-Prkdc^scid/NcrCrl mice,[3],overlap with the reference range
same,"calcium level, Mean",[3]; N 4,11.93
same,ALT level,[3]; vs control,no significant effect
same,AMH serum levels,[3]; vs control,no significant effect
same,AST level,[3]; vs control,no significant effect
same,total bilirubin level,[3]; vs control,no significant effect
same,CCL5 cytokine production,[4],significantly downregulates
same,CCL18 cytokine production,[4],significantly downregulates
same,CXCL10 cytokine production,[4],significantly downregulates
same,MIF cytokine production,[4],significantly downregulates
same,TIMP-2 cytokine production,[4],significantly downregulates
same,TNF RII cytokine production,[4],significantly downregulates
same,TNF alpha cytokine production,[4],significantly downregulates

# Reference: patent publication US20240293337A1, “USE OF DOXERCALCIFEROL TO TREAT AND/OR PREVENT UTERINE FIBROIDS OR POLYCYSTIC OVARY SYNDROME” (priority 2023, published 2024)
